Reference: PMC4257617, “Structures of trehalose synthase from Deinococcus radiodurans reveal that a closed conformation is involved in catalysis of the intramolecular isomerization” (Acta Crystallographica Section D: Biological Crystallography, 2014)
pIC50: −log10 of the molar value.

Tests used:
[1] = target: T1, DrTS (trehalose synthase) (Deinococcus radiodurans, UniProt I3NX86); assay: isomerase assay (trehalose from maltose), HPLC with refractive-index detection; format: biochemical
T1 construct: full length, about 552 residues plus vector linkers (residues 1-5 disordered); pET-23a(+), Ni-NTA purified, E. coli BL21 (DE3); homodimer
T1 sequence (I3NX86 1-552): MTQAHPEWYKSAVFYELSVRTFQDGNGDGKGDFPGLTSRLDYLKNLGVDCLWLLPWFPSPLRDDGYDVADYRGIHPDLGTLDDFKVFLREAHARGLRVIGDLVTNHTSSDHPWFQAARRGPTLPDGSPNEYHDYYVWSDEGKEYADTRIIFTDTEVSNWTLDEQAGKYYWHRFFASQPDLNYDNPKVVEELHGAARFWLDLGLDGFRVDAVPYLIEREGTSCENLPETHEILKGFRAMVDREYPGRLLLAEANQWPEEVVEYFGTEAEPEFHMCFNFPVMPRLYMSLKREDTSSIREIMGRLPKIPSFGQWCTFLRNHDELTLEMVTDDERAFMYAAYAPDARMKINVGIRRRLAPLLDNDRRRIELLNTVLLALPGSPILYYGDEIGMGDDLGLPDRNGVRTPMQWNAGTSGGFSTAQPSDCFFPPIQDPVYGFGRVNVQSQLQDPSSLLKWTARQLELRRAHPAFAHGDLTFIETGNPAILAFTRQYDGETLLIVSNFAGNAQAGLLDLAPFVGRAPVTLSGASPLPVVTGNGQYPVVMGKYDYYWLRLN

[2] = target: Deinococcus radiodurans trehalose synthase, wild type (Deinococcus radiodurans); assay: AUC; sedimentation velocity, 293 K, 42 000 rev/min; enzyme 0.1 mg/ml in 20 mM Tris-HCl pH 7.5, 100 mM NaCl; c(s) distribution with SEDFIT

| Compound | pIC50 [1] | stoichiometry N [2] |
| --- | --- | --- |
| NC(CO)(CO)CO [Tris] | 2.31 |  |
| Deinococcus radiodurans trehalose synthase, wild type (enzyme) |  | 2 |
